Assays:
ryegrass, Italian = assay: Test A pre-/postemergence herbicide test; assay type: in vivo, Lolium multiflorum
Procedure, shortened: (§1)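 Both application timings used compounds in a non-phytotoxic solvent plus surfactant. Pre-emergence: soil sprayed directly after seeding into loam/sand. Post-emergence: foliage of 2–10 cm seedlings (1–2 leaves) sprayed. Injury rated ~10 days later, 0–100.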

wheat = assay: Test A pre-/postemergence herbicide test; assay type: in vivo, Triticum aestivum; settings: Postemergence
Procedure, shortened: as §1

rice = assay: Test B flooded paddy test; assay type: in vivo, Oryza sativa; settings: 500 g ai/ha, Flood; scale of 0 to 100 where 0 is no effect and 100 is complete control
Procedure, shortened: (§2)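 Paddy-water application at a 3 cm flood, young plants having two leaves. Water level maintained; greenhouse, 13–15 days; visual 0–100 control rating.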

blackgrass = assay: Test A postemergence herbicide test; assay type: in vivo, Alopecurus myosuroides
Procedure, shortened: (§3)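 Potted in loam soil/sand blend; postemergence application at 1–2 leaf stage (2–10 cm). Greenhouse ~10 d. Visual injury vs untreated, 0–100 scale; 100 = complete control.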

kochia = assay: Test A pre-/postemergence herbicide test; assay type: in vivo, Kochia scoparia
Procedure, shortened: as §1

barnyardgrass [1] = assay: Test A pre-/postemergence herbicide test; assay type: in vivo, Echinochloa crus-galli
Procedure, shortened: as §1

ragweed = assay: Test A pre-/postemergence herbicide test; assay type: in vivo, Ambrosia elatior
Procedure, shortened: as §1

sedge, umbrella = assay: Test B flooded paddy test; assay type: in vivo, Cyperus difformis; settings: 500 g ai/ha, Flood; scale of 0 to 100 where 0 is no effect and 100 is complete control
Procedure, shortened: as §2

galium = assay: Test A postemergence herbicide test; assay type: in vivo, Galium aparine
Procedure, shortened: as §3

pigweed = assay: Test A pre-/postemergence herbicide test; assay type: in vivo, Amaranthus retroflexus
Procedure, shortened: as §1

ducksalad = assay: Test B flooded paddy test; assay type: in vivo, Heteranthera limosa; settings: 500 g ai/ha, Flood; scale of 0 to 100 where 0 is no effect and 100 is complete control
Procedure, shortened: as §2

barnyardgrass [2] = assay: Test B flooded paddy test; assay type: in vivo, Echinochloa crus-galli; settings: 500 g ai/ha, Flood; scale of 0 to 100 where 0 is no effect and 100 is complete control
Procedure, shortened: as §2

giant foxtail = assay: Test A pre-/postemergence herbicide test; assay type: in vivo, Setaria faberii
Procedure, shortened: as §1

corn = assay: Test A pre-/postemergence herbicide test; assay type: in vivo, Zea mays; settings: Postemergence
Procedure, shortened: as §1

[3] = Postemergence, 125 g ai/ha, visual rating on 0 to 100 scale (0 no effect, 100 complete control), approx. 10 days
[4] = Postemergence, 500 g ai/ha, 0 to 100 scale (0 no effect, 100 complete control)
[5] = Preemergence, 125 g ai/ha, 0 to 100 scale where 0 is no effect and 100 is complete control
[6] = Preemergence, 500 g ai/ha, visual rating on 0 to 100 scale (0 no effect, 100 complete control)
[7] = 125 g ai/ha, visual rating on 0 to 100 scale (0 no effect, 100 complete control), approx. 10 days
[8] = 500 g ai/ha, 0 to 100 scale (0 no effect, 100 complete control)

Structure (SMILES) | Plant response rating, Ryegrass, Italian (ryegrass, Italian; [3]) | Plant response rating, Ryegrass, Italian (ryegrass, Italian; [5]) | Ryegrass, Italian plant response rating (ryegrass, Italian; [6]) | Plant response rating, Wheat (wheat; [7]) | Plant response rating, Rice (rice) | Plant response rating, Blackgrass (blackgrass; [7]) | Plant response rating, Blackgrass (blackgrass; [8]) | Plant response rating, Kochia (kochia; [3]) | Plant response rating, Kochia (kochia; [5]) | Kochia plant response rating (kochia; [6]) | Plant response rating, Barnyardgrass (barnyardgrass [1]; [3]) | Plant response rating, Barnyardgrass (barnyardgrass [1]; [4]) | Plant response rating, Barnyardgrass (barnyardgrass [1]; [5]) | Barnyardgrass plant response rating (barnyardgrass [1]; [6]) | Plant response rating, Ragweed (ragweed; [3]) | Plant response rating, Ragweed (ragweed; [5]) | Ragweed plant response rating (ragweed; [6]) | Plant response rating, Sedge, Umbrella (sedge, umbrella) | Plant response rating, Galium (galium; [7]) | Plant response rating, Pigweed (pigweed; [3]) | further results
O=C1NCC(c2cccc(I)c2)C1C(=O)Nc1cccc(F)c1F (stereo not drawn) [Compound 327] | 20 | 40 | 40 | 0 | 0 | 30 | 40 | 30 | 30 | 70 | 40 | 80 | 70 | 80 | 0 | 20 | 30 | 0 | 40 | 0 | Plant response rating, Ryegrass, Italian (ryegrass, Italian; [4]): 20; Plant response rating, Wheat (wheat; [8]): 20; Plant response rating, Kochia (kochia; [4]): 40; Plant response rating, Ragweed (ragweed; [4]): 20; Plant response rating, Galium (galium; [8]): 60; Plant response rating, Pigweed (pigweed; [4]): 20; Plant response rating, Pigweed (pigweed; [5]): 0; Pigweed plant response rating (pigweed; [6]): 20; Plant response rating, Ducksalad (ducksalad): 60; Plant response rating, Barnyardgrass (barnyardgrass [2]): 0; Plant response rating, Foxtail, Giant (giant foxtail; [3]): 40; Plant response rating, Foxtail, Giant (giant foxtail; [4]): 80; Plant response rating, Foxtail, Giant (giant foxtail; [5]): 80; Foxtail, Giant plant response rating (giant foxtail; [6]): 90; Plant response rating, Corn (corn; [7]): 0; Plant response rating, Corn (corn; [8]): 30
O=C1NCC(c2cccc(-n3cccn3)c2)C1C(=O)Nc1ccccc1C(F)(F)F (stereo not drawn) [Compound 338] | 0 | 0 | 0 | 0 | 0 | 0 | 0 | 0 | 0 | 20 | 0 | 30 | 0 | 20 | 0 | 0 | 0 | 0 | 0 | 0 | Plant response rating, Pigweed (pigweed; [5]): 0; Pigweed plant response rating (pigweed; [6]): 0; Plant response rating, Ducksalad (ducksalad): 0; Plant response rating, Barnyardgrass (barnyardgrass [2]): 0; Plant response rating, Foxtail, Giant (giant foxtail; [3]): 20; Plant response rating, Foxtail, Giant (giant foxtail; [4]): 60; Plant response rating, Foxtail, Giant (giant foxtail; [5]): 30; Foxtail, Giant plant response rating (giant foxtail; [6]): 80; Plant response rating, Corn (corn; [7]): 0; Plant response rating, Corn (corn; [8]): 0
